Each structure is given as a SMILES string. Where two headings read alike, the source gives them in different places.

For one data set, the target named is P110 δ/Pi3K δ (Homo sapiens, UniProt O00329). Nature of the data set: Fluorescent (HTRF) determination of PI3K enzyme activity, δ isoform. Format: biochemical. Details: inhibition: dose or concentration left out as unconfirmed. In short, it runs like this: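 IC50 fitted from percent inhibition relative to blank and enzyme-only wells. Human PI3Kδ converts PIP2 to PIP3 after addition of 400 μM ATP solution, 30 min at room temperature. Product read by time-resolved FRET after stop and 6–18 h dark incubation with detection reagents.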
A general note: In TR-FRET formats the signal depends on donor and acceptor labels being close together.

Chain of P110 δ/Pi3K δ (O00329 whole entry, canonical isoform): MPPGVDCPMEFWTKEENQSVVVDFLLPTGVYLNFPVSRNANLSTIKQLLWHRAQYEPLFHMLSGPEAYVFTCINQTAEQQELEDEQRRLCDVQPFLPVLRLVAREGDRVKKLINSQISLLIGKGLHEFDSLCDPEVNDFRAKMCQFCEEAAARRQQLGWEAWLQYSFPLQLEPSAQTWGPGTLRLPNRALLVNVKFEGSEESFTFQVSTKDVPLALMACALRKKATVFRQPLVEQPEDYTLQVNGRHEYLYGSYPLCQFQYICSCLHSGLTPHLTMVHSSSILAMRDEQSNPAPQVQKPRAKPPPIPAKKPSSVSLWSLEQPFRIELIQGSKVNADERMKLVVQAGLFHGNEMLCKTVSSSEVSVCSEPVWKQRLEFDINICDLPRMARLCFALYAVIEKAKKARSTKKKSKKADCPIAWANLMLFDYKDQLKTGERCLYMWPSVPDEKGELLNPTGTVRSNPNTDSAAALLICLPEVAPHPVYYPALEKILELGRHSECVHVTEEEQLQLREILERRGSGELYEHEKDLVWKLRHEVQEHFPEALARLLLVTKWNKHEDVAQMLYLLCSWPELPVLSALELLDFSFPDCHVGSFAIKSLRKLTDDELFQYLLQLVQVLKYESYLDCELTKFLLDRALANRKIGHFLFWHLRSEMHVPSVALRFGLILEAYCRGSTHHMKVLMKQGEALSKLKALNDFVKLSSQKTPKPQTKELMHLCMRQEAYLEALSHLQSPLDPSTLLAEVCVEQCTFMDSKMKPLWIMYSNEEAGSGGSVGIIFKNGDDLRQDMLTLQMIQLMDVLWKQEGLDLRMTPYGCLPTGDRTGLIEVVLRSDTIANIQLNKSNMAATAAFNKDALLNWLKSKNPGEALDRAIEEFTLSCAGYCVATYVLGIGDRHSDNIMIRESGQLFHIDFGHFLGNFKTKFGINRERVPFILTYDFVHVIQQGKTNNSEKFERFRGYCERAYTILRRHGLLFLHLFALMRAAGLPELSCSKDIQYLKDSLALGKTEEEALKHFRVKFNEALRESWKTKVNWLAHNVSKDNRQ
Chain of P110 δ/Pi3K δ (P27986 whole entry partner, canonical isoform): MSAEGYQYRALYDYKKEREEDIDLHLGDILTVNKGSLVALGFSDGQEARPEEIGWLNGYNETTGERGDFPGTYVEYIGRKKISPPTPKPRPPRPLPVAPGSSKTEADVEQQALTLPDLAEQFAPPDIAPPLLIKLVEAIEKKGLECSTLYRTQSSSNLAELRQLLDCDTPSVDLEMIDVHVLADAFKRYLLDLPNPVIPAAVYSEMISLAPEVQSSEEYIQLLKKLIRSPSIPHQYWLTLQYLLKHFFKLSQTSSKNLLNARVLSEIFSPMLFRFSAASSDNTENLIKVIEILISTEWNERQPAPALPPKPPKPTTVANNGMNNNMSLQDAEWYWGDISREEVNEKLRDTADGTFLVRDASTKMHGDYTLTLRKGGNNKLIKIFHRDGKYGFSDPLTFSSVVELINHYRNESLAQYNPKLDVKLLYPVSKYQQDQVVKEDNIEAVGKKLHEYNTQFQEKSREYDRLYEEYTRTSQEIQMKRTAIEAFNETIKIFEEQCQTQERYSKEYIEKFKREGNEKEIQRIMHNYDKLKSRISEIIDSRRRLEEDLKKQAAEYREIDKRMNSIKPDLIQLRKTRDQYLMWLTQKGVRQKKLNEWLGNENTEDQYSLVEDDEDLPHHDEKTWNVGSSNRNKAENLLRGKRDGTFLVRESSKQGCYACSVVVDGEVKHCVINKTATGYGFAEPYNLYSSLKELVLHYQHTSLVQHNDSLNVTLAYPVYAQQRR

As to `O=c1c(-c2ccccc2)c(CSc2ncnc3[nH]cnc23)oc2ccc(Br)cc12` [Example 13, 2-[(9H-Purin-6-ylthio)methyl]-6-bromo-3-phenyl-4H-chromen-4-one], the melting point (usually the temperature, or range, at which the solid turns liquid) is 214 to 218 °C. Moreover, on P110 δ/Pi3K δ, the inhibition (usually the drop in the measured response relative to a control, in per cent) at 1 µM was below 50%.

On to `O=c1c(-c2ccccc2)c(Cn2cnc3c(Cl)ncnc32)oc2ccccc12` [Example 9, 2-[(6-Chloro-9H-purin-9-yl)methyl]-3-phenyl-4H-chromen-4-one], for which the melting point lay within 187 to 190 °C. This compound also displayed an inhibition at 1 µM on P110 δ/Pi3K δ below 50%.

The compound `CC(c1oc2ccccc2c(=O)c1-c1cccc(F)c1)n1nc(-c2cc(O)cc(F)c2)c2c(N)ncnc21` (centres unmarked) [Example 76a, 2-(1-(4-amino-3-(3-fluoro-5-hydroxyphenyl)-1H-pyrazolo[3,4-d]pyrimidin-1-yl)ethyl)-3-(3-fluorophenyl)-4H-chromen-4-one] gave a melting point of 271 to 273 °C. Further, the inhibition at 1 µM against P110 δ/Pi3K δ lay in the range of 50 to 100%.

In turn, `CC(c1oc2ccc(F)cc2c(=O)c1-c1cccc(F)c1)n1cnc2c(N)ncnc21` (centres unmarked) [Example 50, 2-(1-(6-amino-9H-purin-9-yl)ethyl)-6-fluoro-3-(3-fluorophenyl)-4H-chromen-4-one] came in with a melting point of 252 to 255 °C. In addition, the inhibition at 1 µM on P110 δ/Pi3K δ is 50 to 100%.

The compound `Nc1ncnc2c1ncn2Cc1oc2ccc(Br)cc2c(=O)c1-c1ccccc1F` [Example 29, 2-((6-Amino-9H-purin-9-yl)methyl)-6-bromo-3-(2-fluorophenyl)-4H-chromen-4-one] had a melting point of 231 to 233 °C. At P110 δ/Pi3K δ, the inhibition at 1 µM was below 50%.

As to `CC(C)Oc1cccc(-c2nn(C(C)c3oc4ccccc4c(=O)c3-c3cccc(F)c3)c3ncnc(N)c23)c1` (centres unmarked) [Example 163, 2-(1-(4-amino-3-(3-isopropoxyphenyl)-1H-pyrazolo[3,4-d]pyrimidin-1-yl)ethyl)-3-(3-fluorophenyl)-4H-chromen-4-one], the melting point was in the range of 153 to 157 °C. The inhibition against P110 δ/Pi3K δ is below 50%.

Consider `O=c1c(-c2ccccc2)c(Cn2ccnc2)oc2ccccc12` [Example 12, 2-[(1H-Imidazol-1-yl)methyl]-3-phenyl-4H-chromen-4-one], for which the melting point was 168 to 171 °C. The same compound displayed an inhibition at 1 µM at P110 δ/Pi3K δ below 50%.

Regarding `CC(c1oc2ccccc2c(=O)c1-c1ccccc1)n1ncc2c(N)ncnc21` (centres unmarked) [Example 30, 2-(1-(4-Amino-1H-pyrazolo[3,4-d]pyrimidin-1-yl)ethyl)-3-phenyl-4H-chromen-4-one], the melting point is 226 to 227 °C. The same compound displayed an inhibition at 1 µM against P110 δ/Pi3K δ below 50%.

`Cc1n[nH]c2cc(-c3nn(Cc4oc5ccccc5c(=O)c4-c4cccc(F)c4)c4ncnc(N)c34)ccc12` [Example 99, 2-((4-amino-3-(3-methyl-1H-indazol-6-yl)-1H-pyrazolo[3,4-d]pyrimidin-1-yl)methyl)-3-(3-fluorophenyl)-4H-chromen-4-one] returned a melting point of 246 to 248 °C. The same compound came in with an inhibition against P110 δ/Pi3K δ of 50 to 100%.

`CC(c1oc2ccccc2c(=O)c1-c1cccc(F)c1)n1nc(-c2ccc(CN)s2)c2c(N)ncnc21` (centres unmarked) [Example 102a, 2-(1-(4-amino-3-(5-(aminomethyl)thiophen-2-yl)-1H-pyrazolo[3,4-d]pyrimidin-1-yl)ethyl)-3-(3-fluorophenyl)-4H-chromen-4-one] had a melting point of 275 to 278 °C. The same compound returned an inhibition on P110 δ/Pi3K δ below 50%.

`O=c1c(-c2ccccc2F)c(CNc2ncnc3[nH]cnc23)oc2ccccc12` [Example 45, 2-((9H-purin-6-ylamino)methyl)-3-(2-fluorophenyl)-4H-chromen-4-one] gave a melting point of 143 to 147 °C. This compound registered an inhibition at 1 µM on P110 δ/Pi3K δ below 50%.

`CC(c1oc2ccccc2c(=O)c1-c1cccc(F)c1)n1nc(-c2cccc(O)c2)c2c(N)ncnc21` (centres unmarked) [Example 51a, 2-(1-(4-amino-3-(3-hydroxyphenyl)-1H-pyrazolo[3,4-d]pyrimidin-1-yl)ethyl)-3-(3-fluorophenyl)-4H-chromen-4-one] displayed a melting point of 282 to 285 °C. The same compound displayed an inhibition at 1 µM against P110 δ/Pi3K δ of 50 to 100%. Further, on P110 δ/Pi3K δ (read-out: P110 δ/Pi3K δ IC 50 nM), the IC50 is below 250 nM.

Regarding `Cc1ccccc1-c1c(C(C)n2cnc3c(N)ncnc32)oc2ccccc2c1=O` (centres unmarked) [Example 44, 2-(1-(6-Amino-9H-purin-9-yl)ethyl)-3-o-tolyl-4H-chromen-4-one], the melting point lay within 202 to 205 °C. Moreover, at P110 δ/Pi3K δ, the inhibition at 1 µM lay in the range of 50 to 100%.

In turn, `CC(c1oc2ccccc2c(=O)c1-c1cccc(F)c1)n1nc(-c2cc(O)cc(Cl)c2)c2c(N)ncnc21` (centres unmarked) [Example 86a, 2-(1-(4-amino-3-(3-chloro-5-hydroxyphenyl)-1H-pyrazolo[3,4-d]pyrimidin-1-yl)ethyl)-3-(3-fluorophenyl)-4H-chromen-4-one] gave a melting point of 122 to 124 °C. The compound also yielded an inhibition against P110 δ/Pi3K δ of 50 to 100%.

Consider `Nc1ncnc2c1ncn2Cc1oc2ccc(Br)cc2c(=O)c1-c1ccc(F)cc1` [Example 15, 2-[(6-Amino-9H-purin-9-yl)methyl]-6-bromo-3-(4-fluorophenyl)-4H-chromen-4-one], for which the melting point was in the range of 238 to 242 °C. The compound further registered an inhibition at 1 µM at P110 δ/Pi3K δ below 50%.

The compound `CC(c1oc2ccccc2c(=O)c1-c1cccc(F)c1)n1nc(-c2ccc(C=O)o2)c2c(N)ncnc21` (centres unmarked) [Example 179, 5-(4-amino-1-(1-(3-(3-fluorophenyl)-4-oxo-4H-chromen-2-yl)ethyl)-1H-pyrazolo[3,4-d]pyrimidin-3-yl)furan-2-carbaldehyde] displayed a melting point of 215 to 217 °C. The same compound displayed an inhibition on P110 δ/Pi3K δ of 50 to 100%.

For the compound `CC(c1oc2ccccc2c(=O)c1-c1cccc(F)c1)n1nc(-c2ccc(O)c(O)c2)c2c(N)ncnc21` (centres unmarked) [Example 98, 2-(1-(4-amino-3-(3,4-dihydroxyphenyl)-1H-pyrazolo[3,4-d]pyrimidin-1-yl)ethyl)-3-(3-fluorophenyl)-4H-chromen-4-one], the melting point is 193 to 195 °C. In addition, the inhibition against P110 δ/Pi3K δ fell in the range of 50 to 100%. Also, on P110 δ/Pi3K δ (read-out: P110 δ/ Pi3K δ IC 50 nM), the IC50 is below 250 nM.

`CC(c1oc2ccccc2c(=O)c1-c1cccc(F)c1)n1nc(C#CCO)c2c(N)ncnc21` (centres unmarked) [Example 83, 2-(1-(4-amino-3-(3-hydroxyprop-1-ynyl)-1H-pyrazolo[3,4-d]pyrimidin-1-yl)ethyl)-3-(3-fluorophenyl)-4H-chromen-4-one]: the melting point was in the range of 171 to 173 °C. For the same compound, on P110 δ/Pi3K δ, the inhibition is 50 to 100%.

`CC(c1oc2ccccc2c(=O)c1-c1cccc(F)c1)n1nc(-c2ccc(F)nc2)c2c(N)ncnc21` (centres unmarked) [Example 159, 2-(1-(4-amino-3-(6-fluoropyridin-3-yl)-1H-pyrazolo[3,4-d]pyrimidin-1-yl)ethyl)-3-(3-fluorophenyl)-4H-chromen-4-one] had a melting point of 203 to 206 °C. On P110 δ/Pi3K δ, the inhibition was below 50%.

`CCC(c1oc2ccc(F)cc2c(=O)c1-c1ccccc1)n1cnc2c(N)ncnc21` (centres unmarked) [Example 38, 2-(1-(6-amino-9H-purin-9-yl)propyl)-6-fluoro-3-phenyl-4H-chromen-4-one]: the melting point lay in the range of 266 to 272 °C. The compound also gave an inhibition at 1 µM against P110 δ/Pi3K δ below 50%.

`CC(c1oc2ccccc2c(=O)c1-c1cccc(F)c1)n1nc(-c2ccc3cc(O)ccc3c2)c2c(N)ncnc21` (centres unmarked) [Example 162, 2-(1-(4-amino-3-(6-hydroxynaphthalen-2-yl)-1H-pyrazolo[3,4-d]pyrimidin-1-yl)ethyl)-3-(3-fluorophenyl)-4H-chromen-4-one] returned a melting point of 281 to 285 °C. Besides, the inhibition on P110 δ/Pi3K δ was 50 to 100%.

The values are drawn from patent US9421209B2, “Kinase modulators” (Rhizen Pharmaceuticals SA, priority 2009, dated 2016).
